Laboratory results taken from patent US7842703B2, “Substituted benzofused derivatives and their use as vanilloid receptor ligands” (Glenmark Pharmaceuticals S.A., priority 2005, dated 2010).

What was measured:
[1] = biological target: T1, Human TRPV1 expressing CHO cells (Homo sapiens, UniProt Q8NER1); experiment: Screening for TRPV1 antagonist using the 45Calcium uptake assay (inhibition of capsaicin induced cellular uptake of radioactive calcium); format: cell-based; details: for inhibition at 1 µM: CHO; for inhibition at 1 µM / % inhibition of ^45Ca uptake at 1 μM: test compound 1 μM, capsaicin 250 nM, relative to maximum ^45Ca uptake induced by capsaicin alone; for IC50: inhibition of capsaicin (250 nM) induced ^45Ca uptake
T1 construct: expressed in transfected cells; host or cells: CHO cells under G-418 selection
T1 sequence (Q8NER1 whole entry): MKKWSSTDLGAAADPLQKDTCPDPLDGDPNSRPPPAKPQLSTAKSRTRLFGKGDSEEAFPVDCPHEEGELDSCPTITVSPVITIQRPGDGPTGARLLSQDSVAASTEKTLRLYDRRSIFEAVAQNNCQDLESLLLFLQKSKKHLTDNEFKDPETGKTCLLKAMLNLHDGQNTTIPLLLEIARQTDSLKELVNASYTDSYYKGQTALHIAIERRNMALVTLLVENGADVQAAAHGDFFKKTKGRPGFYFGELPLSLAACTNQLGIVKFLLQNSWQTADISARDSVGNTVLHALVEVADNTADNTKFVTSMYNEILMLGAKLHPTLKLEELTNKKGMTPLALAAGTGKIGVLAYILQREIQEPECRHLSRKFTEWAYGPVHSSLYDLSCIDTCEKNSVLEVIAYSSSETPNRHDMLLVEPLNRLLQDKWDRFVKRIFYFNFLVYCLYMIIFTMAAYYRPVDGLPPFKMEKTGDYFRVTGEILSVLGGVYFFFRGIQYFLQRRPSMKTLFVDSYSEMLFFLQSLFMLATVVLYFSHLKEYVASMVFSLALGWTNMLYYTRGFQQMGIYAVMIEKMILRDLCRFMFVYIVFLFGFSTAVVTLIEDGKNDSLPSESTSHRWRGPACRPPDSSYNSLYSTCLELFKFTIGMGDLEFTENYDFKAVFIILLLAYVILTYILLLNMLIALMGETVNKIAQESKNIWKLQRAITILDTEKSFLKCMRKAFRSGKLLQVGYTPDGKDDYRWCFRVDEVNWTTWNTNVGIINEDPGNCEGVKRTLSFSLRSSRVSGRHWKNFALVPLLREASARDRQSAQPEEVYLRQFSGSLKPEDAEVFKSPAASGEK

inhibition at 1 µM [1]	IC50 [1]	melting point	% inhibition of ^45Ca uptake at 1 μM [1]	SMILES
> 50%	49 nM	187 to 188 °C	–	S=C(Nc1cccc2cnccc12)NC1CC2(CCC2)Oc2ccccc21 (stereo not drawn) [Example 80, N′-isoquinolin-5-yl-N-3,3′,4,4′-tetrahydro-2′H-spiro[chromene-2,1′-cyclobutan]-4-ylthiourea(N′-isoquinolin-5-yl-N-3,4-dihydro-2H-spiro[chromene-2,1′-cyclobutan]-4-ylthiourea)]
> 50%	775 nM	246 to 247 °C	–	O=C(Nc1cccc2cnccc12)NC1CC2(CCC2)Oc2c(O)cccc21 (racemic) [Example 61, (±) 1-(3,4-Dihydro-8-hydroxy-spiro[2H-1-benzopyran-2,1′-cyclobutane]-4-yl)-3-(isoquinolin-5-yl)urea]
< 50%	–	–	–	CNS(=O)(=O)c1ccc2c(c1)C(NC(=O)Nc1cccc3cnccc13)CC1(CCC1)O2 (racemic) [Example 55, (±) 1-(3,4-Dihydro-6-methylaminosulfonyl-spiro[2H-1-benzopyran-2,1′-cyclobutane]-4-yl)-3-(isoquinolin-5-yl)urea]
> 50%	222 nM	–	–	O=C(Nc1cccc2cnccc12)NC1CC2(CCC2)Oc2cc(Cl)c(Cl)cc21 (racemic) [Example 68, (±) 1-(6,7-Dichloro-3,4-dihydro-spiro[2H-1-benzopyran-2,1′-cyclobutane]-4-yl)-3-(isoquinolin-5-yl)urea]

Second part, the compound before the results:

SMILES	inhibition at 1 µM [1]	IC50 [1]	melting point	% inhibition of ^45Ca uptake at 1 μM [1]
COc1ccc2nc(NC(=O)NC3CC4(CCC4)Oc4ccccc43)sc2c1 (racemic) [Example 14, (±) 1-(3,4-Dihydro-spiro[2H-1-benzopyran-2,1′-cyclobutane]-4-yl)-3-(6-methoxy-1,3-benzothiazol-2-yl)urea]	< 50%	–	–	–
O=C(Nc1nnc(-c2ccc(Br)cc2)s1)NC1CC2(CCC2)Oc2ccccc21 (racemic) [Example 21, (±) 1-(3,4-Dihydro-spiro[2H-1-benzopyran-2,1′-cyclobutane]-4-yl)-3-([5-(4-bromophenyl)-1,3,4-thiadiazol-2-yl]-)urea]	–	–	–	<50%
O=C(NCc1cccnc1)NC1CC2(CCC2)Oc2ccccc21 (racemic) [Example 31, (±) 1-(3,4-Dihydro-spiro[2H-1-benzopyran-2,1′-cyclobutan]-4-yl)-3-(pyridin-3-ylmethyl)urea]	< 50%	–	–	–
O=C(Nc1cccc2nsnc12)NC1CC2(CCC2)Oc2ccccc21 (stereo not drawn) [Example 29, N-2,1,3-benzothiadiazol-4-yl-N′-3,3′,4,4′-tetrahydro-2′H-spiro[chromene-2,1′-cyclobutan]-4-ylurea (N-2,1,3-benzothiadiazol-4-yl-N′-3,4-dihydro-2H-spiro[chromene-2,1′-cyclobutan]-4-ylurea)]	–	–	–	<50%
O=C(Nc1cccc2cnccc12)NC1CC2(CCC2)Oc2ccccc21 (single isomer, unassigned; (+)) [Example 4, (+) 1-(3,4-Dihydro-spiro-[2H-1-benzopyran-2,1′-cyclobutan]-4-yl)-3-(isoquinolin-5-yl)urea]	> 50%	7.8 nM	–	–
O=C(Nc1cccc2c[n+]([O-])ccc12)NC1CC2(CCC2)Oc2ccccc21 (racemic) [Example 9, (±) 1-(3,4-Dihydro-spiro[2H-1-benzopyran-2,1′-cyclobutane]-4-yl)-3-(2-oxoisoquinolin-5-yl)urea]	> 50%	103 nM	–	–
O=C(Nc1nnc(-c2ccc([N+](=O)[O-])cc2)s1)NC1CC2(CCC2)Oc2ccccc21 (racemic) [Example 24, (±) 1-(3,4-Dihydro-spiro[2H-1-benzopyran-2,1′-cyclobutane]-4-yl)-3-(5-(4-nitrophenyl)-1,3,4-thiadiazol-2-yl)urea]	< 50%	–	–	–
